From publication PMC6852662 (Organic & biomolecular chemistry, 2019) come the findings set out here.

The experiment deals with T1, PmST1 (Pasteurella multocida, UniProt Q15KI8).
T1 sequence (Q15KI8 26-412): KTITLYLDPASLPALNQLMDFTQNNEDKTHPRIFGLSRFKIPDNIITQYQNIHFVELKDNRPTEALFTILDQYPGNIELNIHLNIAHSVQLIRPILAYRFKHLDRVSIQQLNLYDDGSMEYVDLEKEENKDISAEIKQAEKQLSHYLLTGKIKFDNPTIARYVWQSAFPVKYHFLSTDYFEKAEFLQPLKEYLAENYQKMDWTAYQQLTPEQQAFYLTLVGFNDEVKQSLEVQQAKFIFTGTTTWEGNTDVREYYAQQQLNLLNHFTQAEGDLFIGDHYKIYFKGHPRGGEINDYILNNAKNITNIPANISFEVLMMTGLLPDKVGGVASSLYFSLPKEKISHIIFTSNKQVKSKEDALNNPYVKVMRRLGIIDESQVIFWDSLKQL
In words: sialylation, conversion. It is filed as biochemical. Particulars: poor substrate; prolonged incubation.

Turning to Gb5 [4a], the conversion is reported as ~ 30%.
